Laboratory results reported in US12492202B2, “Macrocyclic PAD4 inhibitors useful as immunosuppressant” (BRISTOL-MYERS SQUIBB COMPANY, priority 2020, dated 2025).

Each molecule was assayed against human PAD4 (hPAD4) (Homo sapiens (Human), UniProt Q9UM07) (assay: RFMS Human PAD4 Functional Assay). Settings: rapid-fire mass spectrum (RFMS) assay; 5 nM hPAD4 enzyme, 250 μM BAEE, 30 min preincubation at 37° C.
Format: biochemical
Procedure: RFMS Human PAD4 Functional Assay: Compounds were solubilized in 100% DMSO to achieve a 10 mM compound concentration. Compound stock solutions were stored at RT. A series of dilutions were prepared in DMSO and mixed 8 times with 20 μL mixing volume. Final top concentration of compound in the assay is 50 μM. Final assay conditions were as follows: • Reaction volume: 26 μl • Assay buffer: 25 mM hepes, pH 7.5, 5 mM NaCl, 1 mM DTT, 0.2 mg/ml BSA, 0.01% CHAPS, 50 μM Calcium, and 5 μM TPEN • Final concentrations: 5 nM hPAD4 enzyme, 250 μM BAEE, and 0.5% DMSO • Total incubation time: 30 mins compound and enzyme preincubation at 37° C., 90 min enzyme/substrate reaction, 30 min reaction with phenyl glyoxal at 37° C. • Stop solution: 40 μl 5% TCA in ACN 0.13 μL of compound solution was added to 13 μL of 10 nM PAD4 in assay buffer. After 30 min 13 μl of 500 μM of BAEE was added in 25 mM hepes, pH 7.5, 5 mM NaCl, 1 mM DTT, 0.2 mg/ml BSA, 0.01% CHAPS, 50 μM Calcium, 5 μM TPEN was added and the reaction incubated for 90 min at 37° C. The enzymatic reaction was quenched by addition of 15 μl of 6.1N TCA, 100% Final Concentration is 20%, 35 μl of 8.5 mM phenyl glyoxal (final concentration 4 mM) is then added and the reaction is incubated for 30 min at 37° C. After 30 minutes the plates are spun down to remove all precipitate. The enzyme reaction was quenched with an equal volume of methanol containing internal standard (modified citrulline). Samples were loaded onto the Rapid Fire RF300 system (Agilent) wherein they were first sipped for 1000 ms and then directly loaded to a C18 separations cartridge using a mixture of acetonitrile containing 0.01% formic acid for 3000 ms desalting. The flow rate of the mobile phase was 1.5 ml/min. Once the samples were eluted from the cartridge, a mobile phase of acetonitrile containing 0.01% formic acid was used to move the samples into the mass spectrometer for 4000 ms at a flow rate of 1.25 ml/min/Sciex API5500 triple quadrupole mass spectrometer (Applied Biosystems) equipped with ESI was used to analyze the peptidyl citrulline and internal standard ions. MRM transition of product and internal standard were monitored at m/z 424.5 to 350.4 and m/z 293 to 247 respectively. The dwell time for each transition was set at 200 ms, and the ESI voltage was used at 5500 with a source temperature of 400° C. Extracted ion peaks for each transition were integrated using the Rapid Fire Integrator software. Peak area of analyte was normalized with internal standard).

human PAD4 (hPAD4), sequence (Q9UM07 whole entry): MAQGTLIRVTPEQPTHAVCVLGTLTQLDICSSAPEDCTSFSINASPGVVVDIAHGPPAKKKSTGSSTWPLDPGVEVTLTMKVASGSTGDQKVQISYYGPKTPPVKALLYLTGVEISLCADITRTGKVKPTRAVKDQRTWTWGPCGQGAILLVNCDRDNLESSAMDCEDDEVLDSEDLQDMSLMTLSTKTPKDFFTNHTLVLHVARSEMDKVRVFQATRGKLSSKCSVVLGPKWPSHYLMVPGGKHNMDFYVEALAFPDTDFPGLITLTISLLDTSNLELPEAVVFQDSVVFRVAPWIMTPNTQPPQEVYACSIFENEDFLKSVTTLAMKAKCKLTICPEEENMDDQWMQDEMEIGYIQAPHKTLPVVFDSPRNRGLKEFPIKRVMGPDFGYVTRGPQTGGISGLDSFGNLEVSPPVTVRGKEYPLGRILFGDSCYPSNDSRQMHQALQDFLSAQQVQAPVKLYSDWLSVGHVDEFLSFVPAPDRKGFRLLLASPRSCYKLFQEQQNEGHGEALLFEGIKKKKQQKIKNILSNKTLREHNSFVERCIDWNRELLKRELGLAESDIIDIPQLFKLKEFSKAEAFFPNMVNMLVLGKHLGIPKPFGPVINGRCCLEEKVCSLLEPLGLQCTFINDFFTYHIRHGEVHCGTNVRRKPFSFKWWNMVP

Molecule | IC50
COc1cc(C(=O)N2C[C@H]3CC[C@@H]2[C@@H]3N)cc2nc3n(c12)Cc1cncc(c1)-c1ccccc1CCCCn1c-3cc2ccc(C(C)(C)O)nc21 [Example 53, ((1R,4R,7R)-7-Amino-2-azabicyclo[2.2.1]heptan-2-yl)(1^6-(2-hydroxypropan-2-yl)-2^7-methoxy-1^1H,2^1H-1,2(2,1)-dipyrrolo[2,3-b]pyridina-4(3,5)-pyridina-5(1,2)-benzenacyclononaphane-2^5-yl)methanone] | 14 nM
((1R,4R,7R)-7-amino-2-azabicyclo[2.2.1]heptan-2-yl)((cis)-6,7-dihydroxy-2^7-methoxy-1^1H,2^1H-1,2(2,1)-dipyrrolo[2,3-b]pyridina-4(1,3),5(1,2)-dibenzenacyclononaphane-2^5-yl)methanone [Example 39] | 26 nM
((3R,5R)-3-amino-5- fluoropiperidin-1-yl)((Z)-2^7- methoxy-1^1H,2^1H,4^1H-2(2,1)- benzo[d]imidazola-1(2,1)-indola- 4(4,1)-pyrazolacyclodecaphane- 2^5-yl)methanone [Example 7] | 136 nM
